For one experiment, the target named is T1, YES (Homo sapiens, UniProt P07947).
T1 construct: purchased DiscoveRx Corporation (KINOMEscan service)
It is filed as binding. The following applies: for Percent control: 10 μM.

In a further experiment the target is T2, ITK (Homo sapiens, UniProt Q08881).
T2 sequence (Q08881 1-620): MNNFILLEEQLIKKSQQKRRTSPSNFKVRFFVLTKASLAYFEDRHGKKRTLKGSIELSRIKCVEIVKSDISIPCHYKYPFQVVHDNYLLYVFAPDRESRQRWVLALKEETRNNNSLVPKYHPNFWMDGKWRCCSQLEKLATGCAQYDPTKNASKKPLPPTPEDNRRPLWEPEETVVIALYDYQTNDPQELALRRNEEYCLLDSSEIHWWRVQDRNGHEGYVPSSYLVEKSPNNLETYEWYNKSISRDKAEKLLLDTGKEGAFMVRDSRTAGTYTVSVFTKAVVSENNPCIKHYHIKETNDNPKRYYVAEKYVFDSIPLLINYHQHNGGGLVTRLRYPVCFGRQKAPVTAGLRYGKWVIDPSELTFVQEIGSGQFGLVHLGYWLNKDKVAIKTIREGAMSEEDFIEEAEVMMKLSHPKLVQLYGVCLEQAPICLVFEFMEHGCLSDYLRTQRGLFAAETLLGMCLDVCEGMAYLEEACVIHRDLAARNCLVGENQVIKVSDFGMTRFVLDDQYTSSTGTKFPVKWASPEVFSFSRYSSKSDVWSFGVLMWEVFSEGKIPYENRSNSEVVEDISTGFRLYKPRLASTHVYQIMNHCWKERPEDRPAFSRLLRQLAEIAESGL
The experiment in a line: biochemical. The following applies: read-out: Percent control.

For a further experiment, the target named is T3, DDR1 (Homo sapiens, UniProt Q08345).
T3 construct: purchased DiscoveRx KINOMEscan
It is filed as binding. The following applies: for Percent control: 10 μM.

The target in another experiment is PDGFRA (Homo sapiens, UniProt P16234). Particulars: 10 μM.
The target in the next experiment is KIT(L576P) (Homo sapiens, UniProt P10721, L576P). The following applies: 10 μM.
Sequence of KIT(L576P) (P10721 26-976 L576P): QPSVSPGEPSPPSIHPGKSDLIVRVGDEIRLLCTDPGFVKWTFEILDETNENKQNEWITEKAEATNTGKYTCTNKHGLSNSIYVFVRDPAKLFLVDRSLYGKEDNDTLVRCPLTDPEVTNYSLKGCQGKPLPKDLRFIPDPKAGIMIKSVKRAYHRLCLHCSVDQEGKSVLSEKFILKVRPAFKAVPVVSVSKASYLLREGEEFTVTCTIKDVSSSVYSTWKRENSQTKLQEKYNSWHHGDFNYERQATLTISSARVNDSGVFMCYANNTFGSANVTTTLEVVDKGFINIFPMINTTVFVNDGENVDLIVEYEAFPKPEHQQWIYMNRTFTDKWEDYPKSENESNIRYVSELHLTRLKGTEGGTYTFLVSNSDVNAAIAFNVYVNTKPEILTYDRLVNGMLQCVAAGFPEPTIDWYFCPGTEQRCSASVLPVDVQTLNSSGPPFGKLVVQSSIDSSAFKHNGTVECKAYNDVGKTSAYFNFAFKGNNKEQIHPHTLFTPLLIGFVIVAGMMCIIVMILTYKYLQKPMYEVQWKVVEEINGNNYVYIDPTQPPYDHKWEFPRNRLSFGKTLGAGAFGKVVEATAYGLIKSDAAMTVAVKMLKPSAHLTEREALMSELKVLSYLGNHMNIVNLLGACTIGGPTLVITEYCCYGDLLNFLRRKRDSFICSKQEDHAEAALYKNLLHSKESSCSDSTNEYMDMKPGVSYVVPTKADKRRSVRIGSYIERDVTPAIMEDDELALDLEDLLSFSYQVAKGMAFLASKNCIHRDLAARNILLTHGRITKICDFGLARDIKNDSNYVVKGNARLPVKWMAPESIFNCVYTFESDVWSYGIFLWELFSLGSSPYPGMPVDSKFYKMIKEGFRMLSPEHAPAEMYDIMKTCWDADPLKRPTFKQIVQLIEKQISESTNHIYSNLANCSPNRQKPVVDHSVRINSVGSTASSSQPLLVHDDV
The target in another experiment is ROS1 (Homo sapiens, UniProt P08922). Particulars: 10 μM.
The target in the next experiment is ALK (Homo sapiens, UniProt Q9UM73). Particulars: 10 μM.
Sequence of ALK (Q9UM73 19-1620): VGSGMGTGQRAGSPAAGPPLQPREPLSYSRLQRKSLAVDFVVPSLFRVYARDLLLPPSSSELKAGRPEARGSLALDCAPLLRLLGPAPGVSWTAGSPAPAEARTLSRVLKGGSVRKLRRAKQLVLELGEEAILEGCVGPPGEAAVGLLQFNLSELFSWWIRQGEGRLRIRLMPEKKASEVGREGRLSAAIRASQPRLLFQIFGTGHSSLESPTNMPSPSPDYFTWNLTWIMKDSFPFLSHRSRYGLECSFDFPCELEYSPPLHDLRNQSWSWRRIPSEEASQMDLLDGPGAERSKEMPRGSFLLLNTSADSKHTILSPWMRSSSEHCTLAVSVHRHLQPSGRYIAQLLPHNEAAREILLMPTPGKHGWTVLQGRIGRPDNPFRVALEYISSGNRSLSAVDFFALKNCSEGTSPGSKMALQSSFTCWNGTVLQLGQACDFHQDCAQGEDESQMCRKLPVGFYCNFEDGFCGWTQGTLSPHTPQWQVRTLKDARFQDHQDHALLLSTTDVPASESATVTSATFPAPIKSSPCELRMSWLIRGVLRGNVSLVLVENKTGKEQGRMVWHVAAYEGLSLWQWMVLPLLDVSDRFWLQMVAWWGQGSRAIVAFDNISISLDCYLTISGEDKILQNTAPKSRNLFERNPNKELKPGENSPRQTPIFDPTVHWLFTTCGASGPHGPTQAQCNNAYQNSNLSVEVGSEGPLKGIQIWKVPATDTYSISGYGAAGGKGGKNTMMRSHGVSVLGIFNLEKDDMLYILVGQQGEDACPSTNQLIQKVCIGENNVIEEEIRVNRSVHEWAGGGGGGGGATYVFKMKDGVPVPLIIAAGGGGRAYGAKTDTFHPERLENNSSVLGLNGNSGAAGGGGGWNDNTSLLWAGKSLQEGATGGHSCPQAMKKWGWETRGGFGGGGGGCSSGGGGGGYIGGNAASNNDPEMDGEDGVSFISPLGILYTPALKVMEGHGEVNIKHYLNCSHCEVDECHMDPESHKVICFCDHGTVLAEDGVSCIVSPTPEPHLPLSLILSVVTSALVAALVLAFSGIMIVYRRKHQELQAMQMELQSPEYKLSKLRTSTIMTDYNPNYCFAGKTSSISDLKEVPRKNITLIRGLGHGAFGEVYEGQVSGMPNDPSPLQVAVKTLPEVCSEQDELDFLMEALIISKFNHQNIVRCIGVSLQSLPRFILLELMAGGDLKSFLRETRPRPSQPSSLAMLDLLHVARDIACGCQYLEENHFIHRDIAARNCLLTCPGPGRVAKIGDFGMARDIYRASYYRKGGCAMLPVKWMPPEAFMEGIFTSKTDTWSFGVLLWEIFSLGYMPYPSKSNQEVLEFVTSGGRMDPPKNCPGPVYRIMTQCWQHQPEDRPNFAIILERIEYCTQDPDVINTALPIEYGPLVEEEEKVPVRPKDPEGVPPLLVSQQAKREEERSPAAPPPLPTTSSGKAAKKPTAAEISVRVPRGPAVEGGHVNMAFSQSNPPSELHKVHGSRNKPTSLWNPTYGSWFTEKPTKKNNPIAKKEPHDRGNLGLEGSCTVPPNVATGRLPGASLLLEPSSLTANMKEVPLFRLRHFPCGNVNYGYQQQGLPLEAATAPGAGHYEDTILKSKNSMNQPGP
The target in another experiment is T4, AXL (Homo sapiens, UniProt P30530).
T4 sequence (P30530 26-894): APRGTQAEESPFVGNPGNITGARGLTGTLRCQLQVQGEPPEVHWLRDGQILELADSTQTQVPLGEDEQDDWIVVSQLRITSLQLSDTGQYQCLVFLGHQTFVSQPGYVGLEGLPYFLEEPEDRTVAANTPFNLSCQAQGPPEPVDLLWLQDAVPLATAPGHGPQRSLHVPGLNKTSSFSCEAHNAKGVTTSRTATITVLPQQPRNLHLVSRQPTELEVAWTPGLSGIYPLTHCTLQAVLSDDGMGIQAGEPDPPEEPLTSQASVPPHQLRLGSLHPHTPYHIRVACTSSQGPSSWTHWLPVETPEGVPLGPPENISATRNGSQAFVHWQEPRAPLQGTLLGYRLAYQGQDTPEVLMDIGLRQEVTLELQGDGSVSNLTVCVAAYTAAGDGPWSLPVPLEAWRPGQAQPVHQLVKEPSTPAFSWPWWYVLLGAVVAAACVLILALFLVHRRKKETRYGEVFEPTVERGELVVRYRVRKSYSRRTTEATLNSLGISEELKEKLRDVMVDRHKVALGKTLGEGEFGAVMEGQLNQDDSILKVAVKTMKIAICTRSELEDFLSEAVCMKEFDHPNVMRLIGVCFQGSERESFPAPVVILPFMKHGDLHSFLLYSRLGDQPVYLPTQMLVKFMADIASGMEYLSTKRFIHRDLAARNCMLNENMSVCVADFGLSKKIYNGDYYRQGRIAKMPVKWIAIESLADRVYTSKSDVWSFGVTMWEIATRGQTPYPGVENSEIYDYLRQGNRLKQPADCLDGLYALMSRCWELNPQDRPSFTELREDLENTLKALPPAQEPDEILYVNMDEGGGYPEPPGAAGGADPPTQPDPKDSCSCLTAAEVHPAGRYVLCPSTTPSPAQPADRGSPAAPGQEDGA
Particulars: 10 μM.

A further experiment deals with LYN (Homo sapiens, UniProt P07948). Particulars: 10 μM.
In another experiment the target is RET(M918T) (Homo sapiens, UniProt P07949, M918T). Particulars: 10 μM.
Sequence of RET(M918T) (P07949 29-1114 M918T): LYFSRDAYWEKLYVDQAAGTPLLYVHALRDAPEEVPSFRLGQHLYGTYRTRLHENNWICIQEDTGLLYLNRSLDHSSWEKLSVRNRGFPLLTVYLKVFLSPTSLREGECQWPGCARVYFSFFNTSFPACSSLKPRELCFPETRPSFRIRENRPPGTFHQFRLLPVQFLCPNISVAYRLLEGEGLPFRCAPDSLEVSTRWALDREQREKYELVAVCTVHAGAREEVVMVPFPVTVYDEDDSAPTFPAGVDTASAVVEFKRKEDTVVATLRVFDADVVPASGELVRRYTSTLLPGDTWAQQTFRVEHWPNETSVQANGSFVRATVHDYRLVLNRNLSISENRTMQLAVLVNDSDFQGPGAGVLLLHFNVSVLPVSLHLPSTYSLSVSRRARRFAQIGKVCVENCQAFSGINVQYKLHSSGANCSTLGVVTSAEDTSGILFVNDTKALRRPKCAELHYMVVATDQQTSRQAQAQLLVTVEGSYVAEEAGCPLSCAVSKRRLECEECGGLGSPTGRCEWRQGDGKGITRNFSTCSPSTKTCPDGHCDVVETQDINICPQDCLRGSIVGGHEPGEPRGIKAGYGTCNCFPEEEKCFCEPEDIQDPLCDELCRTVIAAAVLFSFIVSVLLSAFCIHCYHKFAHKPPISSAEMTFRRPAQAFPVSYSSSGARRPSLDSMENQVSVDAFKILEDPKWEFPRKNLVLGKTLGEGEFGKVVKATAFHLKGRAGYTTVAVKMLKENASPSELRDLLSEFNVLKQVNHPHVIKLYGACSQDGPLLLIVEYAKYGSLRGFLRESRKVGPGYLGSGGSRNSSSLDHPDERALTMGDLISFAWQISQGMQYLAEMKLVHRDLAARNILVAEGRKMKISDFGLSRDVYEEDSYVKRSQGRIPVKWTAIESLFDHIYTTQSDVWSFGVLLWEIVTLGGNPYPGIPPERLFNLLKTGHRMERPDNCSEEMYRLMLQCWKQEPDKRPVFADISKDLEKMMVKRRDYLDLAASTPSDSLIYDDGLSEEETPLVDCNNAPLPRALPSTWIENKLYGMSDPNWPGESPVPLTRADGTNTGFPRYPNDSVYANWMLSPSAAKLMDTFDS
For another experiment, the target named is T5, HCK (Homo sapiens, UniProt P08631).
T5 construct: purchased DiscoveRx KINOMEscan
T5 sequence (P08631 whole entry): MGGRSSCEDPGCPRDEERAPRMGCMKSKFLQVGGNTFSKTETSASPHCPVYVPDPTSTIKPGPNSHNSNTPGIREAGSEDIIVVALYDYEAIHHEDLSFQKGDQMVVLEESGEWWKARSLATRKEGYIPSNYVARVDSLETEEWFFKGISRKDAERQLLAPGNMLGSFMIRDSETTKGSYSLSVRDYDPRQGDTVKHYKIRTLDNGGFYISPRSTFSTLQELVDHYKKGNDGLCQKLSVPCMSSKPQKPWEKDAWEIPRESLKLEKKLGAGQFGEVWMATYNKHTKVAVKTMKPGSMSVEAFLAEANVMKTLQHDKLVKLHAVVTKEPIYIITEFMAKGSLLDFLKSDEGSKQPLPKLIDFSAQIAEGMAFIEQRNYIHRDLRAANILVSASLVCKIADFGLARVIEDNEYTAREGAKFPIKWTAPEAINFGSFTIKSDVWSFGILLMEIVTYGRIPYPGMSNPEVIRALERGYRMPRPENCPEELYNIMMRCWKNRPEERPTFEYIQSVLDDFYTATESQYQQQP
It is filed as binding. Particulars: 10 μM.

Another experiment deals with T6, ZAP70 (Homo sapiens, UniProt P43403).
T6 sequence (P43403 1-619): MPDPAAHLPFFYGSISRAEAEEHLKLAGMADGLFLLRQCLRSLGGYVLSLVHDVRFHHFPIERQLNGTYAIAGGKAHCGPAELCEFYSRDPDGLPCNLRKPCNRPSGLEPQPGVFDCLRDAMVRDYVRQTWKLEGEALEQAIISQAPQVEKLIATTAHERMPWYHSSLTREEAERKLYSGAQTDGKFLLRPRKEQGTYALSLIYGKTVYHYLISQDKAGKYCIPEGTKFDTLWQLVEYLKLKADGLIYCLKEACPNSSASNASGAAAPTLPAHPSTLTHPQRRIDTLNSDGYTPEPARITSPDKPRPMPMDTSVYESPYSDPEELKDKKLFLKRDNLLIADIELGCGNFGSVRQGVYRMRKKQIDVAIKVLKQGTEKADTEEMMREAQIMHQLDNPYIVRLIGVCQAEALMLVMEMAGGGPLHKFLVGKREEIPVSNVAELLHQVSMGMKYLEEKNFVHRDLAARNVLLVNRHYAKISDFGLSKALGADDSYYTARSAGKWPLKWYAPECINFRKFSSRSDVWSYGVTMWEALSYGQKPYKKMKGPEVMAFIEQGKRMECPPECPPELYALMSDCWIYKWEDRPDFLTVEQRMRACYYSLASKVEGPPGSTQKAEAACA
The following applies: 10 μM.

Each structure is given as a SMILES string.

Remaining binding, remaining activity and Percent control data for six compounds are collected here from publication PMC4858680, “A platinum-based hybrid drug design approach to circumvent acquired resistance to molecular targeted tyrosine kinase inhibitors” (Scientific Reports, 2016).

T1 sequence (P07947 whole entry): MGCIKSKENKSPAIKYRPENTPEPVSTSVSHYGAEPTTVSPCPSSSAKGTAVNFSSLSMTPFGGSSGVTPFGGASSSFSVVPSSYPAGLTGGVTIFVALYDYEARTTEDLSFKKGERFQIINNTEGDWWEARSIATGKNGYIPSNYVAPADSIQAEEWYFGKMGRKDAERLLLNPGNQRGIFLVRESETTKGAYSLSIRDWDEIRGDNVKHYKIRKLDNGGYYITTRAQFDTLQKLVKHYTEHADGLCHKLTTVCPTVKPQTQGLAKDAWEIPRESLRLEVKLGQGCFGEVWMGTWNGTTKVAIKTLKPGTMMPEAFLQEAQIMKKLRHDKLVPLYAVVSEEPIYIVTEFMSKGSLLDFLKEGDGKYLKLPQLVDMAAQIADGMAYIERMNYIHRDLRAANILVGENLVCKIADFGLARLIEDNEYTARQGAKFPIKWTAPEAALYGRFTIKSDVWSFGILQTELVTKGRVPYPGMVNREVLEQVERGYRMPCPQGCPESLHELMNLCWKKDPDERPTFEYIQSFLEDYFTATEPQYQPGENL

For the compound `COc1cc2c(Nc3ccc(Br)cc3F)ncnc2cc1OCC1CCN(C)CC1` [Vandetanib, reference compound], the remaining binding at 10 µM was 1.2% on YES (read-out: Percent control) and 0.1% at DDR1 (read-out: Percent control). Further, on ITK, the remaining activity at 10 µM turned out to be 100%.
As for `Cc1ccc(NC(=O)c2ccc(CN3CCN(C)CC3)cc2)cc1Nc1nccc(-c2cccnc2)[n+]1[Pt-2]1([Cl])[NH2+]C2CCCCC2[NH2+]1` (centres unmarked) [1b, oxaliplatin-imatinib], the Percent control on PDGFRA stood at 1.2%; on YES, 100%; on KIT(L576P), 0.9%; on ROS1, 32%; at ALK, 99%; on AXL, 100%. In addition, the Percent control worked out at 67% on LYN, 88% on RET(M918T), 82% on HCK and 100% at ZAP70.
In the case of `C#Cc1cccc(Nc2ncnc3cc(OCCOC)c(OCCOC)cc23)c1` [Erlotinib], the remaining activity at 10 µM at ITK stood at 100%.
As for `COc1cc2c(Nc3ccc(Br)cc3F)[n+]([Pt-2]3([Cl])[NH2+]C4CCCCC4[NH2+]3)cnc2cc1OCC1CCN(C)CC1` (centres unmarked) [3b, oxaliplatin-vandetanib], the Percent control at PDGFRA amounted to 5.7%; on YES, 23%; at KIT(L576P), 2.2%; on ROS1, 74%; on AXL, 19%; on LYN, 21%. For the same compound, the Percent control is given as 0.3% on DDR1 and 99% on ZAP70.
Take `C#Cc1cccc(Nc2c3cc(OCCOC)c(OCCOC)cc3nc[n+]2[Pt@SP2-2]([NH3+])([NH3+])[Cl])c1` [2a, cisplatin-erlotinib]: the Percent control on PDGFRA is on record as 100%; at YES it was 100%; at KIT(L576P) it was 73%; on ROS1, 91%; at ALK it was 79%; at AXL, 93%. Further, the Percent control is 69% on LYN; 74% at DDR1; 61% on RET(M918T); 64% on HCK; 89% on ZAP70.
Take `Cc1ccc(NC(=O)c2ccc(CN3CCN(C)CC3)cc2)cc1Nc1nccc(-c2cccnc2)n1` [Imatinib, reference compound]: the Percent control at ROS1 amounted to 100%; at ALK, 100%; at AXL, 100%; on LYN it was 74%; at RET(M918T) it was 100%; on HCK it was 100%. The compound further registered a Percent control at ZAP70 of 100%. At ITK, the remaining activity at 10 µM amounted to 100%.
